Like-named read-outs stand apart in the source and are kept apart here.
How the values were obtained:
[1] = molecular target: human TYK2 (JH2domain-pseudokinase) (Homo sapiens (Human), UniProt P29597); test: TYK2 JH2 Domain Binding Assay (KINOMEscan)
Method in brief: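 Competition binding of an NFkB-DBD fusion of human TYK2 JH2 (G556–D888), expressed in HEK293 and used as crude extract at <0.1 nM, against immobilized ligand beads; 1 h at room temperature in PBS/Tween/DTT/BSA buffer, 0.9% DMSO.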

Tyk2 kinase domain (DH1) = Tyk2 kinase domain (DH1) (Homo sapiens (Human), UniProt P29597); test: Tyk2 Radioactive Kinase Assay; type: biochemical; conditions: read-out: Tyk2 JH1% Inhibition @ 10 μM
Method in brief: (§1)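 Single-point screen: 10 μM test compound, radioactive kinase read-out, percent inhibition reported for each kinase domain.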

JAK2 kinase domain (JH1) = JAK2 kinase domain (JH1) (Homo sapiens (Human), UniProt O60674); test: JAK2 Radioactive Kinase Assay; type: biochemical; conditions: read-out: JAK2 JH1% Inhibition @ 10 μM
Method in brief: as §1

Tyk2 kinase domain (DH1), sequence (P29597 897-1176): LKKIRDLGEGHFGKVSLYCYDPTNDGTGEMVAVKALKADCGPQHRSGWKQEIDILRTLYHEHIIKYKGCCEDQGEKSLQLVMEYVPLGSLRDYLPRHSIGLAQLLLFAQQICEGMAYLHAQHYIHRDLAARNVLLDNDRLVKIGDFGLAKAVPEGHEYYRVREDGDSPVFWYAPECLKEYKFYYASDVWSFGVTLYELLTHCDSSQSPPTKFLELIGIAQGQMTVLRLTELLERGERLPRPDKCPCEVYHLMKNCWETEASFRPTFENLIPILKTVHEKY
human TYK2 (JH2domain-pseudokinase), sequence (P29597 556-888): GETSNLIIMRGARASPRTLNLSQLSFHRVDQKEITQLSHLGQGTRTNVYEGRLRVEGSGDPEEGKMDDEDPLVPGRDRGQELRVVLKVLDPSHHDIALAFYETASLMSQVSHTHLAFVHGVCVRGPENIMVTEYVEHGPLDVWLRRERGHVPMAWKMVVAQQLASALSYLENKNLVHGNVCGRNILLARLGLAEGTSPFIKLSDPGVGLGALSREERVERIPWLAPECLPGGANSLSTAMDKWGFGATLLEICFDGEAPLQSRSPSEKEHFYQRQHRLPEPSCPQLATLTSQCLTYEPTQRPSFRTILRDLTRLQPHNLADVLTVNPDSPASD
JAK2 kinase domain (JH1), sequence (O60674 849-1124): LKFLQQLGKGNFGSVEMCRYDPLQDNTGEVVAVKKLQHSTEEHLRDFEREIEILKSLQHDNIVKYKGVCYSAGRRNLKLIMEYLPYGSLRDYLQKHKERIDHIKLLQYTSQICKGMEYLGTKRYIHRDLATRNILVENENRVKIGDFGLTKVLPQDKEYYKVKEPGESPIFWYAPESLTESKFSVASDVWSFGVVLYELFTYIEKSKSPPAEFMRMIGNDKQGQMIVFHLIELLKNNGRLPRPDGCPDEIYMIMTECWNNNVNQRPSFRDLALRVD

| Compound | Kd [1] [pM] | inhibition at 10 µM (Tyk2 kinase domain (DH1); compound at 10 μM, ATP 10 μM) [%] | inhibition at 10 µM (JAK2 kinase domain (JH1); compound at 10 μM, ATP 10 μM) [%] | inhibition at 10 µM (Tyk2 kinase domain (DH1); 10 μM compound, 10 μM ATP) [%] | inhibition at 10 µM (JAK2 kinase domain (JH1); 10 μM compound, 10 μM ATP) [%] |
| --- | --- | --- | --- | --- | --- |
| Cc1nccc(-n2cccc(Nc3cc(N)n4ncc(C(N)=O)c4n3)c2=O)n1 [I-42] | 1000 to 10000 | < 50 | < 50 | – | – |
| CNc1cc(-c2nn([C@H]3CCOC3)c3ncccc23)nc2c(C(=O)N[C@@H]3C[C@@H]3F)cnn12 [I-518] | 200 to 1000 | < 50 | < 50 | – | – |
| CNc1cc(-c2cn(C3CCOCC3)c3ncccc23)nc2c(C(=O)N[C@@H]3CC[C@@H]3O)cnn12 [I-1114] | 200 to 1000 | – | – | < 50 | < 50 |
| CNc1cc(Nc2cccn([C@H]3CCC[C@H](O)C3)c2=O)nc2c(C(=O)N[C@@H]3C[C@@H]3F)cnn12 [I-1030] | < 200 | – | – | < 50 | < 50 |
| CNc1cc(Nc2cccn([C@H]3CC[C@](C)(OC)CC3)c2=O)nc2c(C(=O)N[C@@H]3CC[C@H]3OC)cnn12 [I-1106] | 1000 to 10000 | – | – | < 50 | < 50 |
| CNc1cc(Nc2cccn([C@H]3CCN(CCC#N)C3)c2=O)nc2c(C(=O)N[C@@H]3C[C@@H]3F)cnn12 [I-986] | < 200 | – | – | < 50 | < 50 |
| CNc1cc(-c2cn(C(C)C)c3ncccc23)nc2c(C(=O)NC3CC4(COC4)C3)cnn12 [I-629, 5-(1-isopropyl-1H-pyrrolo[2,3-b]pyridin-3-yl)-7-(methylamino)-N-(2-oxaspiro[3.3]heptan-6-yl)pyrazolo[1,5-a]pyrimidine-3-carboxamide] | 200 to 1000 | < 50 | < 50 | – | – |
| CNc1cc(Nc2cccc(N3CCC4(CCCO4)CC3)n2)nc2c(C(=O)N[C@@H]3CC[C@@H]3O)cnn12 [I-657] | < 200 | < 50 | < 50 | – | – |
| CNc1cc(Nc2cccn(C(C)C)c2=O)nc2c(C(=O)N[C@H]3CC[C@@]3(C)O)cnn12 (stereo in doubt) [I-1116, N-(2-hydroxy-2-methylcyclobutyl)-5-((1-isopropyl-2-oxo-1,2-dihydropyridin-3-yl)amino)-7-(methylamino)pyrazolo[1,5-a]pyrimidine-3-carboxamide] | > 10000 | – | – | < 50 | < 50 |
| CNc1cc(Nc2cccc(N3CCCC3)n2)nc2c(C(=O)NC3CC3)cnn12 [I-382] | 200 to 1000 | < 50 | < 50 | – | – |
| CNc1cc(-c2nn([C@@H]3CCOC3)c3ncccc23)nc2c(C(=O)N[C@@H]3C[C@@H]3F)cnn12 [I-517] | 200 to 1000 | < 50 | < 50 | – | – |
| CNc1cc(Nc2cccn([C@H]3CCCOC3)c2=O)nc2c(C(=O)NCC(C)(C)CO)cnn12 [I-599] | < 200 | < 50 | < 50 | – | – |
| CNc1cc(Nc2cccn([C@H]3CC[C@](C)(OC)CC3)c2=O)nc2c(C(=O)NC3CC3)cnn12 [I-361] | < 200 | < 50 | < 50 | – | – |
| CNc1cc(Nc2cccn([C@H]3CCC[C@@H](OC)C3)c2=O)nc2c(C(=O)N[C@@H]3CC[C@H]3O)cnn12 [I-1123] | < 200 | – | – | < 50 | < 50 |
| CNc1cc(Nc2cc(Cl)cnc2OC(C)C)nc2c(C(=O)N[C@H]3C[C@H]3F)cnn12 [I-148] | 200 to 1000 | < 50 | < 50 | – | – |
| CNc1cc(Nc2cccc([C@H]3CCCOC3)n2)nc2c(C(=O)N[C@H]3CC[C@H]3O)cnn12 [I-642] | < 200 | < 50 | < 50 | – | – |

— patent US10508120B2, “TYK2 inhibitors and uses thereof” (Nimbus Lakshmi, Inc., priority 2017, dated 2019)
